{"source": "patent US8877683B2", "about": "“Substituted pyridines having herbicidal activity” (BASF SE, priority 2010, dated 2014)", "experiment_in_all_cases": "greenhouse post-emergence herbicidal test", "type_in_all_cases": "in vivo", "conditions_in_all_cases": "application rate 0.25 kg/ha", "key": {"AVEFA (Avena fatua)": {"tested_on": "AVEFA (Avena fatua)", "from_the_text": "(§1) The culture containers used were plastic flowerpots containing loamy sand with approximately 3.0% of humus as the substrate. The seeds of the test plants were sown separately for each species.\n(§2) For the post-emergence treatment, the test plants were first grown to a height of 3 to 15 cm, depending on the plant habit, and only then treated with the active ingredients which had been suspended or emulsified in water. For this purpose, the test plants were either sown directly and grown in the same containers, or they were first grown separately as seedlings and transplanted into the test containers a few days prior to treatment.\n(§3) Depending on the species, the plants were kept at 10-25° C. or 20-35° C. The test period extended over 2 to 4 weeks. During this time, the plants were tended, and their response to the individual treatments was evaluated.\n(§4) Evaluation was carried out using a scale from 0 to 100. 100 means no emergence of the plants, or complete destruction of at least the aerial moieties, and 0 means no damage, or normal course of growth. A good herbicidal activity is given at values of at least 70 and a very good herbicidal activity is given at values of at least 85.\n(§5) The herbicidal activity of the substituted pyridine compounds I-2 and I-13 according to this invention was tested in comparison with the corresponding pyrazine compounds Nos. C-11 and C-19 disclosed on page 48 of WO 2010/130970 (not of the invention). These comparative experiments were performed at an application rate of 0.25 kg/ha in a post-emergence treatment by following the same procedure as described above in the Use Examples. The results of Comparative Examples 1 and 2 are indicated below in Tables II and III."}, "[1]": {"tested_on": "ALOMY (Alopercurus myosuroides)", "from_the_text": "as §1, §2, §3, §4, §5"}, "[2]": {"tested_on": "ECHCG (Echinocloa crus-galli)", "from_the_text": "as §1, §2, §3, §4, §5"}, "[3]": {"tested_on": "CHEAL (Chenopodium album)", "from_the_text": "as §1, §2, §3, §4, §5"}, "[4]": {"tested_on": "BRSNW (Brassica napus (winter))", "from_the_text": "as §1, §2, §3, §4, §5"}}, "data": [{"smiles": "O=S1(=O)Cc2cccnc2C(O)=C1c1ccccc1C(F)(F)F", "note": "[I-2, 6,6-Dioxo-7-(2-trifluoromethyl-phenyl)-5,6-dihydro-thiopyrano[4,3-b]pyridin-8-ol]", "values": [{"measurement": "herbicidal activity against AVEFA", "setting": "AVEFA (Avena fatua)", "value": "very good (a very good herbicidal activity is given at values of at least 85)"}, {"measurement": "herbicidal activity against ALOMY", "setting": "[1]", "value": "very good (a very good herbicidal activity is given at values of at least 85)"}, {"measurement": "herbicidal activity against ECHGG", "setting": "[2]", "value": "very good (a very good herbicidal activity is given at values of at least 85)"}]}, {"smiles": "CC(C)(C)C(=O)OC1=C(c2ccccc2C(F)(F)F)S(=O)(=O)Cc2cccnc21", "note": "[I-8, 2,2-Dimethyl-propionic acid 6,6-dioxo-7-(2-trifluoromethyl-phenyl)-5,6-dihydro-thiopyrano[4,3-b]pyridin-8-yl ester]", "values": [{"measurement": "herbicidal activity against ALOMY", "setting": "[1]", "value": "good (A good herbicidal activity is given at values of at least 70)"}]}, {"smiles": "O=S1(=O)Cc2cccnc2C(O)=C1c1c(Cl)cccc1Cl", "note": "[I-13]", "values": [{"measurement": "herbicidal activity against CHEAL", "setting": "[3]", "value": "very good (a very good herbicidal activity is given at values of at least 85)"}, {"measurement": "herbicidal activity against BRSNW", "setting": "[4]", "value": "very good (a very good herbicidal activity is given at values of at least 85)"}, {"measurement": "herbicidal activity against ECHGG", "setting": "[2]", "value": "very good (a very good herbicidal activity is given at values of at least 85)"}]}, {"smiles": "O=S1(=O)Cc2nccnc2C(O)=C1c1ccccc1C(F)(F)F", "note": "[reference compound]", "values": [{"measurement": "herbicidal activity against AVEFA", "setting": "AVEFA (Avena fatua)", "value": "less than good"}, {"measurement": "herbicidal activity against ALOMY", "setting": "[1]", "value": "good (A good herbicidal activity is given at values of at least 70)"}, {"measurement": "herbicidal activity against ECHGG", "setting": "[2]", "value": "less than good"}]}, {"smiles": "O=S1(=O)Cc2nccnc2C(O)=C1c1c(Cl)cccc1Cl", "note": "[reference compound]", "values": [{"measurement": "herbicidal activity against CHEAL", "setting": "[3]", "value": "less than good"}, {"measurement": "herbicidal activity against BRSNW", "setting": "[4]", "value": "good (A good herbicidal activity is given at values of at least 70)"}, {"measurement": "herbicidal activity against ECHGG", "setting": "[2]", "value": "less than good"}]}]}
